Assay results taken from publication PMC4856055 (Journal of medicinal chemistry, 2015).
Several values for one entry are separate records, joined by “and”; a condition that tells them apart may be missing. Equal entries are not always repeated. Where two headings read alike, the source gives them in different places.

How the values were obtained:
PSMA = PSMA (Homo sapiens, UniProt Q04609); settings: ref 13d; cited from earlier work
[1] = tested on: PSMA+ PC3 PIP and PSMA– PC3 flu xenografts; assay type: in vivo, mice; settings: for PIP:blood ratio / PIP:flu ratio / PIP:kidney ratio / PIP:muscle ratio / biodistribution, PC-3 PIP tumor / biodistribution, PC-3 flu tumor / biodistribution, bladder / biodistribution, blood / biodistribution, bone / biodistribution, fat / biodistribution, heart / biodistribution, kidney / biodistribution, large intestine / biodistribution, liver / biodistribution, lung / biodistribution, muscle / biodistribution, pancreas / biodistribution, small intestine / biodistribution, spleen / biodistribution, stomach: tumor bearing mice
[2] = tested on: PSMA+ PC3 PIP and PSMA– PC3 flu tumor xenografts; test: Small animal PET or PET/CT imaging of tumor bearing mice; assay type: in vivo

Chain of PSMA (Q04609 whole entry): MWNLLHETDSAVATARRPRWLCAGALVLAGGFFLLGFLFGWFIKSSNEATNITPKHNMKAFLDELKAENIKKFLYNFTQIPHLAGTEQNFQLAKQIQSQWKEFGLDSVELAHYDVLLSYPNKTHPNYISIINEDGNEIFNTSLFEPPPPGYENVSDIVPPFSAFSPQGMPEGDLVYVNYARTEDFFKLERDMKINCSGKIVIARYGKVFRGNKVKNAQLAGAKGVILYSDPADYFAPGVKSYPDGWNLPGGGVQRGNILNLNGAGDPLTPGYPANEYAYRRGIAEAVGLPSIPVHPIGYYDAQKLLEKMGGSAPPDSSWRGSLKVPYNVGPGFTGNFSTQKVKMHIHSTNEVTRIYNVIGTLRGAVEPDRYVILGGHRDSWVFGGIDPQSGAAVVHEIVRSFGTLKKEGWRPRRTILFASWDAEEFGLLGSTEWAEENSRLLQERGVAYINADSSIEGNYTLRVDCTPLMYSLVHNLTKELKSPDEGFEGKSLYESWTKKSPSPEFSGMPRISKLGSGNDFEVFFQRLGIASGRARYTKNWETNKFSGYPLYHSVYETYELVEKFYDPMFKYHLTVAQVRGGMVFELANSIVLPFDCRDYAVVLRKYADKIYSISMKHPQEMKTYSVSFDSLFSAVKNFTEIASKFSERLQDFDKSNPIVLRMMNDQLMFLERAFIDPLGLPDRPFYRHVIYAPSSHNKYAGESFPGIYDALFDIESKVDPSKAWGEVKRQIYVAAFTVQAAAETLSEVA

## O=C(O)CC[C@H](NC(=O)N[C@@H](CCCCNC(=O)c1ccc(F)cc1)C(=O)O)C(=O)O [compound 9]
PSMA
  Ki: 0.25 nM

## O=C(O)CCC(OC(=O)NC(CCCCNC(=O)c1ccc(I)cc1[18F])C(=O)O)C(=O)O (stereo not drawn) [[^18F]24, 4-iodo-2-[^18F]fluorobenzoyllysine OPA carbamate]
[1]; 0.5 h postinjection
  PIP:blood ratio: 5.6
  PIP:flu ratio: 9.1
  PIP:kidney ratio: 0.5
  PIP:muscle ratio: 47 and 46.6
  biodistribution, PC-3 PIP tumor: 45 % ID/g and 44.7 ± 0.62 % ID/g
  biodistribution, PC-3 flu tumor: 4.91 ± 1.10 % ID/g
  biodistribution, bladder: 3.89 ± 0.40 % ID/g
  biodistribution, blood: 7.94 ± 0.99 % ID/g
  biodistribution, bone: 1.52 ± 0.19 % ID/g
  biodistribution, fat: 1.65 ± 0.67 % ID/g
  biodistribution, heart: 2.27 ± 0.32 % ID/g
  biodistribution, kidney: 94.4 ± 8.22 % ID/g
  biodistribution, large intestine: 1.83 ± 0.16 % ID/g
  biodistribution, liver: 16.6 ± 1.61 % ID/g
  biodistribution, lung: 5.13 ± 0.29 % ID/g
  biodistribution, muscle: 0.96 ± 0.21 % ID/g
  biodistribution, pancreas: 1.78 ± 0.15 % ID/g
  biodistribution, small intestine: 1.37 ± 0.06 % ID/g
  biodistribution, spleen: 14.6 ± 4.41 % ID/g
  biodistribution, stomach: 1.80 ± 0.08 % ID/g
[1]; 1 h postinjection
  PIP:blood ratio: 20 and 19.7
  PIP:flu ratio: 25.4
  PIP:kidney ratio: 0.5
  PIP:muscle ratio: 100 and 100.2
  biodistribution, PC-3 PIP tumor: 57.1 ± 19.55 % ID/g
  biodistribution, PC-3 flu tumor: 2.25 ± 1.62 % ID/g
  biodistribution, bladder: 2.19 ± 0.22 % ID/g
  biodistribution, blood: 2.90 ± 1.98 % ID/g
  biodistribution, bone: 0.78 ± 0.14 % ID/g
  biodistribution, fat: 0.88 ± 0.68 % ID/g
  biodistribution, heart: 1.23 ± 0.22 % ID/g
  biodistribution, kidney: 122 ± 21.9 % ID/g
  biodistribution, large intestine: 0.78 ± 0.13 % ID/g
  biodistribution, liver: 15.5 ± 2.00 % ID/g
  biodistribution, lung: 3.31 ± 0.41 % ID/g
  biodistribution, muscle: 0.57 ± 0.06 % ID/g
  biodistribution, pancreas: 1.23 ± 0.29 % ID/g
  biodistribution, small intestine: 1.83 ± 1.12 % ID/g
  biodistribution, spleen: 7.81 ± 4.22 % ID/g
  biodistribution, stomach: 0.99 ± 0.17 % ID/g
[1]; 2 h postinjection
  PIP:blood ratio: 66
  PIP:flu ratio: 71.1
  PIP:kidney ratio: 0.7
  PIP:muscle ratio: 250 and 250.5
  biodistribution, PC-3 PIP tumor: 85.2 ± 5.44 % ID/g
  biodistribution, PC-3 flu tumor: 1.20 ± 0.31 % ID/g
  biodistribution, bladder: 7.48 ± 0.68 % ID/g
  biodistribution, blood: 1.29 ± 0.87 % ID/g
  biodistribution, bone: 0.36 ± 0.02 % ID/g
  biodistribution, fat: 1.12 ± 0.43 % ID/g
  biodistribution, heart: 0.57 ± 0.09 % ID/g
  biodistribution, kidney: 115 ± 13.2 % ID/g
  biodistribution, large intestine: 0.55 ± 0.01 % ID/g
  biodistribution, liver: 8.99 ± 0.55 % ID/g
  biodistribution, lung: 1.91 ± 0.29 % ID/g
  biodistribution, muscle: 0.34 ± 0.07 % ID/g
  biodistribution, pancreas: 0.92 ± 0.40 % ID/g
  biodistribution, small intestine: 1.19 ± 0.61 % ID/g
  biodistribution, spleen: 6.78 ± 1.25 % ID/g
  biodistribution, stomach: 0.51 ± 0.07 % ID/g
[1]; 4 h postinjection
  PIP:blood ratio: 156 and 155.8
  PIP:flu ratio: 231.1
  PIP:kidney ratio: 1.3
  PIP:muscle ratio: 743
  biodistribution, PC-3 PIP tumor: 97 % ID/g and 96.6 ± 18.7 % ID/g
  biodistribution, PC-3 flu tumor: 0.42 ± 0.07 % ID/g
  biodistribution, bladder: 2.03 ± 1.09 % ID/g
  biodistribution, blood: 0.62 ± 0.10 % ID/g
  biodistribution, bone: 0.18 ± 0.04 % ID/g
  biodistribution, fat: 0.58 ± 0.17 % ID/g
  biodistribution, heart: 0.24 ± 0.04 % ID/g
  biodistribution, kidney: 74.4 ± 13.8 % ID/g
  biodistribution, large intestine: 0.96 ± 0.25 % ID/g
  biodistribution, liver: 2.77 ± 0.49 % ID/g
  biodistribution, lung: 0.94 ± 0.06 % ID/g
  biodistribution, muscle: 0.13 ± 0.04 % ID/g
  biodistribution, pancreas: 0.26 ± 0.06 % ID/g
  biodistribution, small intestine: 0.24 ± 0.09 % ID/g
  biodistribution, spleen: 3.49 ± 0.86 % ID/g
  biodistribution, stomach: 0.19 ± 0.03 % ID/g
[1]; at 2–4 h
  tumor/kidney ratio: approximately 1
[2]; male SCID mice with PSMA+ PC3 PIP and PSMA– PC3 flu xenografts
  PSMA+ PC3 PIP tumor uptake on small animal PET imaging: Intense and selective radiotracer uptake
[2]; mouse, in vivo
  uptake in salivary glands on imaging: Neither [^18F]23 nor [^18F]24 demonstrated any uptake in salivary glands
